Measured values: patent US10314799B2 (priority 2015, dated 2019)
Where two headings read alike, the source gives them in different places.

Key:
PEDV [1] = settings: Virus Research (2013), 171(1), 44-53; cited from earlier work
PEDV [2] = assay: Prevention of porcine epidemic diarrhea of newborn piglets by orally administering taurine to PEDV-carried pregnant sows; format: in vivo, pigs; settings: taurine 50 g per sow per day, oral
Description: Prevention of the porcine epidemic diarrhea on the newborn piglets with taurine was implemented by orally administering taurine to pregnant sows.
Drug administration time: 3-30 days before birth of piglets until 15 days after birth of piglets. In consideration of a use-cost, the drug administration time is preferably 5-20 days before birth of piglets until 10 days after birth of piglets, and more preferably 7-14 days before birth of piglets until 5 days after birth of piglets. The effect is subject to an obvious time-effect relationship. The drug administration time for before birth of piglets directly determines a disease incidence of the newborn piglets.
Drug administration dosage: each pregnant sow was administered with 5-500 g of taurine per day, and the administration was in a single dose or in divided doses. The effect is subject to an obvious quantity-effect relationship.
Specific operations: pregnant sows were selected and excrement thereof was tested by RT-PCR to determine the pregnant sows carrying PEDV in vivo. 60 PEDV-carried pregnant sows were divided into two groups randomly. Control group: conventional feeding; experimental group: conventional feeding+50 g per sow per day of taurine.

[3] = tested on: porcine epidemic diarrhea; assay: Treatment of porcine epidemic diarrhea of newborn suckling piglets (piglets and lactating sows treated); format: in vivo, pigs; settings: diseased newborn suckling piglets; 100 g per sow per day, 0.2 g per piglet per day
Protocol: Treatment of the porcine epidemic diarrhea on newborn piglets with taurine was implemented by orally administering a taurine solution to diseased suckling piglets and administering taurine to lactating sows, that is, simultaneous treatment of both the suckling piglets and the lactating sows.
Drug administration time: the administration by drenching/mixed-feeding was carried out on the day when the disease occurred in the suckling piglets and a non-interrupted administration lasted for 3-10 days. Lactating sows: non-interrupted oral administration lasted for 5-10 days.
Drug administration dosage: the administration by drenching and/or mixed-feeding was carried out on the day when the disease occurred in the suckling piglets. The administration by drenching: 2% taurine solution at a dosage of 1-5 mL per time and it was taken 2-6 times per day. The administration by mixed-feeding: 1-20 g/L of taurine solution was drunk freely. Lactating sows: each sow was administered with 5-500 g of taurine per day and the administration was in a single dose or in divided doses.
Specific operations: 40 litters of diseased newborn suckling piglets and sows thereof were selected and randomly divided into two groups equivalently. Control group: conventional supportive therapy (fluid infusion+antibiotic therapy+atropine sulfate); experimental group: treatment with taurine.

[4] = tested on: porcine epidemic diarrhea; assay: Prevention of porcine epidemic diarrhea of weaned piglets, care pigs and finishing pigs; format: in vivo; settings: 200 mg per kilogram of body weight per day
Protocol: Prevention of the porcine epidemic diarrhea on the weaned piglets, the care pigs and the finishing pigs with taurine was implemented by orally administering taurine to a swine herd, wherein the administration may be carried out by means of feeding in water or mixed feeding.
Drug administration time: a preventative administration was carried out during an epidemic period of the disease, or in autumn, winter and spring when the temperature was low and changed greatly, that is, in the season when the porcine epidemic diarrhea frequently occurs. Generally, the administration can be carried out for a long-term. In consideration of the use-cost, the drug administration time is preferably 3-30 days, and more preferably, 7-14 days. The effect is subject to an obvious time-effect relationship.
Drug administration dosage: 0.005-2% of taurine was added in daily-drinking water for the pigs to drink freely; or 0.01-5% of taurine was added into the feed, which is equivalent to a dosage of 50-10000 mg per kilogram of body weight per day of taurine, and the administration was in a single dose or in divided doses. The effect is subject to an obvious quantity-effect relationship.
Specific operations: 120 healthy weaned piglets, 120 healthy care pigs and 120 healthy finishing pigs were selected and randomly divided into two groups equivalently. Control group: conventional feeding; experimental group: conventional feeding+taurine (the dosage of taurine was 200 mg per kilogram of body weight per day).

[5] = tested on: porcine epidemic diarrhea; assay: Treatment of porcine epidemic diarrhea of weaned piglets, care pigs and finishing pigs; format: in vivo; settings: 300 mg per kilogram of body weight per day
Protocol: Treatment of the porcine epidemic diarrhea on the weaned piglets, the care pigs and the finishing pigs with taurine was implemented by orally administering taurine to the pigs, wherein the administration may be carried out by means of feeding in water or mixed feeding.
Drug administration time: the administration was carried out from the day of occurrence of the disease, and in consideration of the use-cost, the drug administration time is preferably 3-30 days, and more preferably 7-14 days. The effect is subject to an obvious time-effect relationship.
Drug administration dosage: 0.1-2% of taurine was added in the daily-drinking water for the pigs to drink freely; or 0.2-5% of taurine was added into the feed, which is equivalent to a dosage of 100-10000 mg per kilogram of body weight per day of taurine, and the administration was in a single dose or in divided doses. The effect is subject to an obvious quantity-effect relationship.
Specific operations: 60 diseased weaned piglets, 60 diseased care pigs and 60 diseased finishing pigs were selected, and were randomly divided into two groups equivalently. Control group: conventional supportive therapy (fluid infusion+antibiotic therapy+atropine sulfate); experimental group: treatment with taurine (the dosage of taurine was 300 mg per kilogram of body weight per day).

[6] = tested on: porcine transmissible gastroenteritis; format: in vivo, pigs
rotavirus diarrhea = assay: Treatment of rotavirus diarrhea; format: in vivo, pigs
[7] = tested on: pseudorabies viral diarrhea; format: in vivo, pigs
epidemic diarrhea = settings: orally administered to diseased piglets, specific dose; cited from earlier work
[8] = care pigs, dosage as in Embodiment 4
[9] = finishing pigs, dosage as in Embodiment 4
[10] = newborn piglets, dosage as in Embodiment 2
[11] = weaned piglets, dosage as in Embodiment 4

## NC(=O)c1ncn([C@@H]2O[C@H](CO)[C@@H](O)[C@H]2O)n1 [Ribavirin]
PEDV [1]
  inhibition of replication of PEDV: capable of inhibiting replication of PEDV

## NCCS(=O)(=O)O [taurine, β-aminoethanesulfonic acid]
PEDV [2]
  Death rate of the newborn piglets (%): 75.1%
  Disease incidence of the new born piglets (%): 85%
[3]
  10-day-aged survival rate (%): 22.5%
  Prognosis: Good
  Weaned survival rate: 20.7
[4]; care pigs
  Disease incidence (%): 3.3%
  Prognosis: Excellent
  Survival rate (%): 96.6%
[4]; finishing pigs
  Disease incidence (%): 0%
  Prognosis: Excellent
  Survival rate (%): 98.3%
[4]; weaned piglets
  Disease incidence (%): 6.6%
  Prognosis: Excellent
  Survival rate (%): 96.6%
[5]; diseased care pigs
  Prognosis: Good
  Survival rate (%): 93.3%
[5]; diseased finishing pigs
  Prognosis: Good
  Survival rate (%): 100%
[5]; diseased weaned piglets
  Prognosis: Good
  Survival rate (%): 90.0%
[6]; [8]
  Prognosis: Good
  Survival rate (%): 93.3%
[6]; [9]
  Prognosis: Good
  Survival rate (%): 96.6%
[6]; [10]
  Prognosis: Good
  Survival rate (%): 16.6%
[6]; [11]
  Prognosis: Good
  Survival rate (%): 90%
Rotavirus diarrhea; [8]
  Prognosis: Good
  Survival rate (%): 96.6%
Rotavirus diarrhea; [10]
  Prognosis: Good
  Survival rate (%): 93.6%
Rotavirus diarrhea; [11]
  Prognosis: Good
  Survival rate (%): 96.6%
[7]; [8]
  Prognosis: General
  Survival rate (%): 43.3%
[7]; [10]
  Survival rate (%): 0%
[7]; summary of Table 5
  treatment effect on the pseudorabies viral diarrhea: no treatment effect

## povidone iodine
Epidemic diarrhea
  improvement of survival rate: 5-10%
